From US9850247B2 (Almac Discovery Limited, priority 2013, dated 2017)

What was measured:
[1] = test system: phospho-cdc2 (Tyr15) in HT-29 cells; assay: Effect on Cdc2 phosphorylation at Tyr15, Cell-Based ELISA Base Kit (Method 3); conditions: Homo sapiens, HT-29, 8 h, eight hours incubation, normalized to total cdc2, read-out: HT29 pCDC2 method 3
In short: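 HT-29 cells were treated with compounds for 8 h at 37 °C, then fixed in 4% formaldehyde. Phospho-cdc2 (Tyr15) and total cdc2 were read by dual-fluorogenic cell-based ELISA at 600/450 nm. Phospho signal was normalized to total cdc2 and expressed as % of DMSO control, and EC50 came from non-linear regression.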

[2] = test system: phospho-cdc2 (Tyr15) in HT-29 cells; assay: Effect on phosphorylation of cdc2 at Tyr15, PathScan ELISA (Method 2); format: cell-based; conditions: Homo sapiens, 8 h, eight hours incubation, read-out: HT29 pCDC2 method 2
Protocol: Method 2: Determining the Effect of Compounds on the phosphorylation of cdc2 at Tyr15
The colorectal cancer cell lines HT-29 and HCT-116 were purchased from the ATCC and routinely maintained in McCoy's Medium (Invitrogen) supplemented with 10% Foetal Calf Serum.
The cells were trypsinised from their growing vessel and counted, 100 μL of cell suspension containing 6000 cells was pipetted into black 96 well Co-star plates and incubated overnight to allow adherence to the surface at a temperature of 37° C. and an atmosphere of 5% CO2. Test compounds were formulated in DMSO and diluted in foetal calf serum supplemented medium. Incubating medium was removed by aspiration and diluted drug supplemented medium added to each well.
The plate was returned to the incubator for an additional eight hours at 37° C. and an atmosphere of 5% CO2. Post incubation, the drug supplemented medium was aspirated from each well and the cells were washed once in ice-cold phosphate buffered saline (PBS). 100 μL of cell lysis buffer (Cell Signalling Technologies #9803) containing 20 mM Tris, 150 mM NaCl, 1 mM EDTA, 1 mM EGTA, 1% Triton-X100, 2.5 mM sodium pyrophosphate, 1 mM glycerophosphate, 1 mM Na3VO4 and 1 μg/mL leupeptin was added to each well of the 96 well plate and incubated at 4° C. for 30 min. The samples on the plate were snap frozen at −80° C. until required. Immediately before the continuation of the assay, the sample plate was thawed and centrifuged at 4° C. for 10 min and the supernatant transferred to secondary tubes or 96 well plate.
Cell supernatant was mixed in a ratio of 1:1 with sample dilutent buffer and vortexed for one minute. 100 μL of diluted sample was pipetted into pre-coated plates containing a rabbit polyclonal antibody for phospho-cdc2 (Tyr15) (Cell Signalling Technologies PathScan kit #7176). The plate was sealed and incubated overnight at 4° C.
The plate seal was removed and the well contents aspirated, followed by 3×5 min washes with 200 μL of diluted wash buffer. Between each wash the plate was tapped firmly onto blotting paper to ensure the removal of all kit solution. 100 μL of kit detection antibody was added to each well and the plate re-sealed and incubated at 37° C. for 1 h. Post incubation the plate was washed and processed in a similar manner to that previously described.
100 μL of horseradish peroxidise-linked secondary antibody was added to each test well, the plate sealed and incubated for thirty minutes at 37° C. Post incubation, the plate was washed as previously stated, followed by the addition of 100 μL of 3,3′,5,5′ tetramethylbenzidine (TMB reagent). The plate was sealed and incubated at RT for 30 min.
100 μL of stop solution was added to each well and the underside of the plate wiped with a lint-free tissue, prior to spectrophotometric determination. Absorbance from each well was read at 450 nm within 30 min of the addition of the stop solution.
The percentage of phospho-cdc2 was calculated compared to DMSO control and plotted versus the concentration of inhibitor using GraphPad Prism. Data was fitted using non-linear regression analysis and IC50 values generated.

Compound | IC50 [2] [nM] | EC50 [1] [nM]
Cc1cc(Nc2ncc3c(n2)N(C)CN(c2c(Cl)cccc2Cl)C3=O)ccc1N1CCNCC1 [Example 6, 3-(2,6-Dichlorophenyl)-1-methyl-7-((3-methyl-4-(piperazin-1-yl)phenyl)amino)-2,3-dihydropyrimido[4,5-d]pyrimidin-4(1H)-one] | ≤ 100 | 100 to 1000
CN1CN(c2c(Cl)cccc2Cl)C(=O)c2cnc(Nc3ccc(N4CCN[C@@H](CO)C4)cc3)nc21 [Example 19, (R)-3-(2,6-Dichlorophenyl)-7-((4-(3-(hydroxymethyl)piperazin-1-yl)phenyl)amino)-1-methyl-2,3-dihydropyrimido[4,5-d]pyrimidin-4(1H)-one] | 100 to 1000 | 100 to 1000
C[C@H]1CN(c2ccc(Nc3ncc4c(n3)N(C)CN(c3c(Cl)cccc3Cl)C4=O)cc2)CCN1 [Example 17, (S)-3-(2,6-Dichlorophenyl)-1-methyl-7-((4-(3-methylpiperazin-1-yl)phenyl)amino)-2,3-dihydropyrimido[4,5-d]pyrimidin-4(1H)-one] | ≤ 100 | 100 to 1000
CN1CN(c2c(Cl)cccc2Cl)C(=O)c2cnc(Nc3ccc(N4CC5CCC(C4)N5)cc3)nc21 [Example 74, 7-((4-(3,8-diazabicyclo[3.2.1]octan-3-yl)phenyl)amino)-3-(2,6-dichlorophenyl)-1-methyl-2,3-dihydropyrimido [4,5-d]pyrimidin-4(1H)-one] | 100 to 1000 | 100 to 1000
CN1CN(c2c(Cl)cccc2Cl)C(=O)c2cnc(Nc3ccc(N4CCN(C(=O)CN)CC4)cc3)nc21 [Example 13, 7-((4-(4-(2-Aminoacetyl)piperazin-1-yl)phenyl)amino)-3-(2,6-dichlorophenyl)-1-methyl-2,3-dihydropyrimido[4,5-d]pyrimidin-4(1H)-one] | 100 to 1000 | 100 to 1000
CN1CN(c2c(Cl)cccc2Cl)C(=O)c2cnc(Nc3ccc4c(c3)CNCC4)nc21 [Example 14, 3-(2,6-Dichlorophenyl)-1-methyl-7-((1,2,3,4-tetrahydroisoquinolin-7-yl)amino)-2,3-dihydropyrimido[4,5-d]pyrimidin-4(1H)-one] | ≤ 100 | 100 to 1000
Cc1cc(Nc2ncc3c(n2)N(C)CN(c2c(Cl)cccc2Cl)C3=O)ccc1C1CCNCC1 [Example 18, 3-(2,6-Dichlorophenyl)-1-methyl-7-((3-methyl-4-(piperidin-4-yl)phenyl)amino)-2,3-dihydropyrimido[4,5-d]pyrimidin-4(1H)-one] | 100 to 1000 | 100 to 1000
CNCc1cc(Nc2ncc3c(n2)N(C)CN(c2c(Cl)cccc2Cl)C3=O)ccc1N1CCOCC1 [Example 5, 3-(2,6-Dichlorophenyl)-1-methyl-7-((3-((methylamino)methyl)-4-morpholinophenyl)amino)-2,3-dihydropyrimido[4,5-d]pyrimidin-4(1H)-one] | 100 to 1000 | 100 to 1000
C[C@@H]1CN(c2ccc(Nc3ncc4c(n3)N(C)CN(c3c(Cl)cccc3Cl)C4=O)cc2)CCN1 [Example 16, (R)-3-(2,6-Dichlorophenyl)-1-methyl-7-((4-(3-methylpiperazin-1-yl)phenyl)amino)-2,3-dihydropyrimido[4,5-d]pyrimidin-4(1H)-one] | ≤ 100 | 100 to 1000
CC(C)N1CCN(c2ccc(Nc3ncc4c(n3)N(C)CN(c3c(Cl)cccc3Cl)C4=O)cc2CO)CC1 [Example 21, 3-(2,6-Dichlorophenyl)-7-((3-(hydroxymethyl)-4-(4-isopropylpiperazin-1-yl)phenyl)amino)-1-methyl-2,3-dihydropyrimido[4,5-d]pyrimidin-4(1H)-one] | ≤ 100 | 100 to 1000
CN1CN(c2c(Cl)cccc2Cl)C(=O)c2cnc(Nc3ccc(N4CCNCC4)c(C#N)c3)nc21 [Example 11, 3-(2,6-Dichlorophenyl)-7-((3-cyano-4-(piperazin-1-yl)phenyl)amino)-1-methyl-2,3-dihydropyrimido[4,5-d]pyrimidin-4(1H)-one] | 100 to 1000 | 100 to 1000
COc1cc(Nc2ncc3c(n2)N(C)CN(c2c(Cl)cccc2Cl)C3=O)ccc1N1CCNCC1 [Example 3, 3-(2,6-Dichlorophenyl)-7-((3-methoxy-4-(piperazin-1-yl)phenyl)amino)-1-methyl-2,3-dihydropyrimido[4,5-d]pyrimidin-4(1H)-one] | 100 to 1000 | 100 to 1000
[2H]C1([2H])N(C)c2nc(Nc3ccc(N4CCNCC4)cc3)ncc2C(=O)N1c1c(Cl)cccc1Cl [Example 15, 3-(2,6-Dichlorophenyl)-2,2-dideutero-1-methyl-7-((4-(piperazin-1-yl)phenyl)amino)-2,3-dihydropyrimido[4,5-d]pyrimidin-4(1H)-one] | ≤ 100 | 100 to 1000

The next lines start with results.

IC50 [2] [nM] | Compound | EC50 [1] [nM]
100 to 1000 | C[C@@H]1CN(c2ccc(Nc3ncc4c(n3)N(C)CN(c3c(Cl)cccc3Cl)C4=O)cc2F)CCN1 [Example 43, (R)-3-(2,6-dichlorophenyl)-7-((3-fluoro-4-(3-methylpiperazin-1-yl)phenyl)amino)-1-methyl-2,3-dihydropyrimido[4,5-d]pyrimidin-4(1H)-one] | 100 to 1000
≤ 100 | COC[C@H]1CN(c2ccc(Nc3ncc4c(n3)N(C)CN(c3c(Cl)cccc3Cl)C4=O)cc2)CCN1 [Example 60, (R)-3-(2,6-dichlorophenyl)-7-((4-(3-(methoxymethyl)piperazin-1-yl)phenyl)amino)-1-methyl-2,3-dihydropyrimido[4,5-d]pyrimidin-4(1H)-one] | 100 to 1000
100 to 1000 | COCc1cc(Nc2ncc3c(n2)N(C)CN(c2c(Cl)cccc2Cl)C3=O)ccc1N1CCNCC1 [Example 31, 3-(2,6-dichlorophenyl)-7-((3-(methoxymethyl)-4-(piperazin-1-yl)phenyl)amino)-1-methyl-2,3-dihydropyrimido[4,5-d]pyrimidin-4(1H)-one] | 100 to 1000
100 to 1000 | COCc1cc(Nc2ncc3c(n2)N(C)CN(c2c(Cl)cccc2Cl)C3=O)ccc1N1CCN[C@H](C)C1 [Example 59, (R)-3-(2,6-dichlorophenyl)-7-((3-(methoxymethyl)-4-(3-methylpiperazin-1-yl)phenyl)amino)-1-methyl-2,3-dihydropyrimido[4,5-d]pyrimidin-4(1H)-one] | 100 to 1000
≤ 100 | CN1CN(c2c(F)cccc2Cl)C(=O)c2cnc(Nc3ccc(N4CCNCC4)cc3)nc21 [Example 25, 3-(2-Chloro-6-fluorophenyl)-1-methyl-7-((4-(piperazin-1-yl)phenyl)amino)-2,3-dihydropyrimido[4,5-d]pyrimidin-4(1H)-one] | 100 to 1000
≤ 100 | C[C@@H]1CN(c2ccc(Nc3ncc4c(n3)N(C)CN(c3c(Cl)cccc3Cl)C4=O)cc2)[C@@H](C)CN1 [Example 80, 3-(2,6-dichlorophenyl)-7-((4-((2S,5R)-2,5-dimethylpiperazin-1-yl)phenyl)amino)-1-methyl-2,3-dihydropyrimido[4,5-d]pyrimidin-4(1H)-one] | 100 to 1000
≤ 100 | C[C@@H]1CN[C@@H](C)CN1c1ccc(Nc2ncc3c(n2)N(C)CN(c2c(Cl)cccc2Cl)C3=O)cc1 [Example 40, 3-(2,6-dichlorophenyl)-7-((4-((2R,5S)-2,5-dimethylpiperazin-1-yl)phenyl)amino)-1-methyl-2,3-dihydropyrimido[4,5-d]pyrimidin-4(1H)-one] | 100 to 1000
≤ 100 | CN1CCc2ccc(Nc3ncc4c(n3)N(C)CN(c3c(Cl)cccc3Cl)C4=O)cc2C1 [Example 22, 3-(2,6-Dichlorophenyl)-1-methyl-7-((2-methyl-1,2,3,4-tetrahydroisoquinolin-7-yl)amino)-2,3-dihydropyrimido[4,5-d]pyrimidin-4(1H)-one] | 100 to 1000
≤ 100 | C[C@@H]1CN(c2ccc(Nc3ncc4c(n3)N(C)CN(c3c(F)cccc3Cl)C4=O)cc2)CCN1 [Example 53, (R)-3-(2-chloro-6-fluorophenyl)-1-methyl-7-((4-(3-methylpiperazin-1-yl)phenyl)amino)-2,3-dihydropyrimido[4,5-d]pyrimidin-4(1H)-one] | 100 to 1000
